Experiment in all cases: Spectrophotometric assay of hydrolytic activity (kinetic parameters)
Assay type in all cases: biochemical

Experiment [1] concerns the target hydrolase Seq ID No: 1 (metagenomic, wild-type hydrolase) (uncultured bacterium, UniProt A0ACD6BAS6). Particulars: potassium phosphate buffer, pH 7.5, 22 °C; for kcat / Vmax: 310 nm (BzdC) or 290 nm (dC); for Vmax: unit not given; for Km: absorbance decrease at 310 nm (BzdC) or 290 nm (dC), Michaelis-Menten fit. The procedure: (§1) For the spectrophotometric assay, the reaction was started by adding an appropriate amount of protein to potassium phosphate buffer, pH 7.5 supplemented with 0.3, 0.15, 0.1, 0.075, 0.05, 0.0375, 0.025, 0.0125 mM N^4-benzoyl-2'-deoxycytidine, or 1, 0.8, 0.5, 0.4, 0.25, 0.2, 0.1, 0.05 mM 2'-deoxycytidine. Then, decreases in absorbance at either 310 for N^4-benzoyl-2'-deoxycytidine or 290 nm for 2'-deoxycytidine were recorded at 22 °C. Kinetic parameters (Table x) were calculated using Imfit-py 1.0.2 software fitting the experimental data to a simple Michaelis-Menten kinetics scheme. Table 5. Kinetic parameters of hydrolases. Substrate: BzdC - N4-benzoyl-2'-deoxycytidine; dC-2'-deoxycytidine.

Experiment [2] concerns hydrolase Seq ID No: 3 (metagenomic hydrolase). The following applies: potassium phosphate buffer, pH 7.5, 22 °C; for kcat / Vmax: 310 nm (BzdC) or 290 nm (dC); for Vmax: unit not given; for Km: absorbance decrease at 310 nm (BzdC) or 290 nm (dC), Michaelis-Menten fit. As to the method: as §1
Experiment [3] addresses hydrolase variant Seq ID No: 15 (site-directed mutant) (uncultured bacterium, UniProt A0ACD6BAS6). Particulars: potassium phosphate buffer, pH 7.5, 22 °C, 310 nm (BzdC) or 290 nm (dC); for Vmax: unit not given.
Excerpt: (§2) Mutations in the hydrolase's genes were introduced using methodology based on "Phusion™ Site-Directed Mutagenesis Kit" (Thermo Fisher Scientific). For specific mutagenesis, primer pairs meant to amplify the whole plasmid with the target protein gene, where one primer has miss-matched base pairs in the middle, were created (Fw/Rv): […]/[…] (SEQ ID NO:10); [formula] [formula] […]/[…] (SEQ ID NO:13); [formula] [formula] […]/[…] and […]/[…] (SEQ ID NO: 16, SEQ ID NO: 17, SEQ ID NO: 18); [formula] […]/[…] (SEQ ID NO: 21); [formula] […]/[…] (SEQ ID NO: 23); […]/[…] (SEQ ID NO: 24).
as §1

Experiment [4] has as its target hydrolase variant Seq ID No:13 (site-directed mutant) (uncultured bacterium, UniProt A0ACD6BAS6, form not given/G85I). The following applies: potassium phosphate buffer, pH 7.5, 22 °C, 310 nm (BzdC) or 290 nm (dC).
Excerpt: as §2, §1

The target in experiment [5] is hydrolase variant Seq ID No: 10 (site-directed mutant) (uncultured bacterium, UniProt A0ACD6BAS6, DEL127-130, form not given). Particulars: potassium phosphate buffer, pH 7.5, 22 °C, 310 nm.
Excerpt: as §2, §1

In experiment [6] the target is hydrolase variant Seq ID No: 11 (site-directed mutant) (uncultured bacterium, UniProt A0ACD6BAS6). Particulars: potassium phosphate buffer, pH 7.5, 22 °C, 310 nm.
Excerpt: as §2, §1

Experiment [7] addresses hydrolase variant Seq ID No: 12 (site-directed mutant) (uncultured bacterium, UniProt A0ACD6BAS6). Particulars: potassium phosphate buffer, pH 7.5, 22 °C; 310 nm; unit not given.
Excerpt: as §2, §1

Experimental findings from patent EP4299736A2, “HYDROLASES AND USES THEREOF” (Vilnius University, priority 2022, dated 2024) are described below.

In general, Km refers to the concentration of substrate that gives half-maximal velocity.

hydrolase variant Seq ID No:13 (site-directed mutant), sequence (A0ACD6BAS6 entry or part of it G85I, form open): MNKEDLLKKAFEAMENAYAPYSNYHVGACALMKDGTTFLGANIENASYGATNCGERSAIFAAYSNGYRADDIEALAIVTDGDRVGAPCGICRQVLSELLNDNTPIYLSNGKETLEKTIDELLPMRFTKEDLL
hydrolase variant Seq ID No: 15 (site-directed mutant), sequence (A0ACD6BAS6 entry or part of it, change not shown): as the sequence (A0ACD6BAS6 entry or part of it G85I, form open) above
hydrolase Seq ID No: 1 (metagenomic, wild-type hydrolase), sequence (A0ACD6BAS6 entry or part of it): as the sequence (A0ACD6BAS6 entry or part of it G85I, form open) above
hydrolase variant Seq ID No: 10 (site-directed mutant), sequence (A0ACD6BAS6 entry or part of it DEL127-130): as the sequence (A0ACD6BAS6 entry or part of it G85I, form open) above
hydrolase variant Seq ID No: 11 (site-directed mutant), sequence (A0ACD6BAS6 entry or part of it, change not shown): as the sequence (A0ACD6BAS6 entry or part of it G85I, form open) above
hydrolase variant Seq ID No: 12 (site-directed mutant), sequence (A0ACD6BAS6 entry or part of it, change not shown): as the sequence (A0ACD6BAS6 entry or part of it G85I, form open) above

Regarding `Nc1ccn([C@H]2C[C@H](O)[C@@H](CO)O2)c(=O)n1` [dC, 2'-deoxycytidine], the kcat result in experiment [1] is reported as “(24.4 ± 1.71) × 10 ^-1 s^-1”; in experiment [2], “(2.09 +/- 0.09) ×10^-1 s^-1”; in experiment [3] it was “(2.58 ± 0.09) × 10^-2 s^-1”; in experiment [4], “(6.87 ± 0.80) × 10 ^-1 s^-1”. Moreover, the Vmax result is recorded as “(2.67 ± 0.19) × 10^-4” in experiment [1], “(1.20 ± 0.05) × 10^-4” in experiment [2], “(6.70 ± 0.24) × 10^-5” in experiment [3] and “(4.35 ± 0.51) × 10^-4” in experiment [4] (unit not given). Moreover, the results for the Michaelis constant (Km) in experiment [1] and in experiment [2] were 195 µM and 182 µM, respectively.
Turning to `O=C(Nc1ccn([C@H]2C[C@H](O)[C@@H](CO)O2)c(=O)n1)c1ccccc1` [BzdC, N4-benzoyl-2'-deoxycytidine], the kcat entry is “(5.04 ± 0.4) ×10^-1 s^-1” in experiment [1]; “(3.81 +/- 0.24) × 10 ^-1 s^-1” in experiment [2]; “(5.41 ± 0.23) × 10^-2 s^-1” in experiment [5]; “(3.88 ± 0.80) × 10^-2 s^-1” in experiment [6]; “(1.22 ± 0.09) × 10^-2 s^-1” in experiment [3]; “(2.36 ± 0.01) × 10 ^-1 s^-1” in experiment [4]. Besides, the Vmax result is given as “(1.00 ± 0.08) × 10^-4” in experiment [1]; “(6.55 ± 0.41) × 10^-5” in experiment [2]; “(5.49 ± 0.23) × 10^-5” in experiment [5] (unit not given); “(4.56 ± 0.093) × 10^-5” in experiment [6] (unit not given); “(1.19 ± 0.15) × 10^-4” in experiment [7]; “(3.17 ± 0.25) × 10^-5” in experiment [3]. Further, the Km in experiment [1] was 115 µM; in experiment [2], 46.5 µM.
